# Reference: patent US20250340552A1, “COMPOUNDS, COMPOSITIONS AND METHODS OF TREATING DISORDERS” (HOTSPOT THERAPEUTICS, INC., priority 2022, published 2025)
# Where two headings read alike, the source gives them in different places.
# Target: T1, Cbl-B (Homo sapiens, UniProt Q13191)
# T1 construct: MSD-Based Assay for Degradation of Cbl-B in THP-1 Cells; endogenous in cells; host or cells: THP-1 (title) / Jurkat (protocol text)
# Assay: MSD-based assay for degradation of Cbl-B in THP-1 cells
# Assay type: cell-based
# How it was run: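 THP-1 cells were treated with compound for 24 h at 37 °C. Cbl-B in lysates was quantified by MSD sandwich immunoassay, with anti-Cbl-B capture antibody at 1 ug/mL and SULFO-TAG anti-rabbit detection. Maximal degradation (Dmax) was binned as A >70%, B 50–70%, C 30–50%, D <30%.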
# [1] = Cbl-B degradation, Jurkat cells seeded (heading: THP-1 cells), 24 hours incubation, MSD readout
# [2] = Cbl-B degradation, Jurkat cells seeded (heading: THP-1 cells), 24 hours incubation, MSD readout, read-out: Dmax
# T1 sequence (Q13191 whole entry): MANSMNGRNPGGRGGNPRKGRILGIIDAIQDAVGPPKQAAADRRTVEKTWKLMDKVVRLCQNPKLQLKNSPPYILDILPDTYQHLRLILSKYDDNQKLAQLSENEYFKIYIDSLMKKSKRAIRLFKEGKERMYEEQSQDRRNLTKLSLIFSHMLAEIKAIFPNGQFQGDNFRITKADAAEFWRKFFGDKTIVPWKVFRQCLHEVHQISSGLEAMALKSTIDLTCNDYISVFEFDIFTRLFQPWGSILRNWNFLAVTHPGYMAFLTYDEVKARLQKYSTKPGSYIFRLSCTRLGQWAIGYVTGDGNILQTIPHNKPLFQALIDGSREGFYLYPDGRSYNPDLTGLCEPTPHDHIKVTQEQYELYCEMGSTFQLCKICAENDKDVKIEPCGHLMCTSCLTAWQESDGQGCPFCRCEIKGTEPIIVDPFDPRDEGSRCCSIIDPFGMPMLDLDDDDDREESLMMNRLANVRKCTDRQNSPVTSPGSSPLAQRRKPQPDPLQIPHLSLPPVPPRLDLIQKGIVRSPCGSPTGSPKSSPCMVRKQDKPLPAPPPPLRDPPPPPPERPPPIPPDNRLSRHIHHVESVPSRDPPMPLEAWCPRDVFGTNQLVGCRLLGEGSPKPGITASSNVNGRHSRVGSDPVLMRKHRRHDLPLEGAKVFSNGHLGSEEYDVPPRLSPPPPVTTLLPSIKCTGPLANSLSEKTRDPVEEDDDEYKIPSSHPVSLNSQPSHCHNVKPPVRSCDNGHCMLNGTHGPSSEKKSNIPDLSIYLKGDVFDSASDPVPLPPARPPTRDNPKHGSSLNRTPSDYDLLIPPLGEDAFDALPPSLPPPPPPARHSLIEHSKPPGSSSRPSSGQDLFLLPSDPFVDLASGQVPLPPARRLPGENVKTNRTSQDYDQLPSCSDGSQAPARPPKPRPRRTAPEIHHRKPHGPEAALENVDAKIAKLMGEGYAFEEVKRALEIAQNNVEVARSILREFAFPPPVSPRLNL
SMILES,DC50 [1],Dmax [2],Dmax (THP-1)
Cn1cnnc1[C@@H](c1cccc(-n2cc3c(C(F)(F)F)cc(CN4CCC[C@H](OCc5ccc(CN6CCN(c7ccc8c(c7)CN([C@H]7CCC(=O)NC7=O)C8=O)CC6)cc5)C4)cn3c2=O)c1)C1CCC1 [Compound 82],< 30 nM,,
Cn1cnnc1[C@@H](c1cccc(-n2cc3c(C(F)(F)F)cc(CN4CCC[C@@H](OCc5ccc(CN6CCN(c7ccc8c(c7)CN(C7CCC(=O)NC7=O)C8=O)CC6)cc5)C4)cn3c2=O)c1)C1CCC1 (stereo partly shown) [Compound 95],30 to 300 nM,,
Cn1cnnc1CC1(c2cccc(-n3cc4c(C(F)(F)F)cc(CN5CCC[C@@H](OCc6ccc(CN7CCN(c8ccc9c(c8)CN(C8CCC(=O)NC8=O)C9=O)CC7)cc6)C5)cn4c3=O)c2)COC1 (stereo partly shown) [Compound 96],30 to 300 nM,30 to 50%,
Cn1cnnc1[C@@H](c1cccc(-n2cc3c(C(F)(F)F)cc(-c4nccn4CCOCCN4CCC(CN5CCN(c6ccc7c(c6)CN([C@@H]6CCC(=O)NC6=O)C7=O)CC5)CC4)cn3c2=O)c1)C1CCC1 [Compound 97],1000 to 10000 nM,30 to 50%,
Cn1cnnc1CC1(c2cccc(-n3cc4c(C(F)(F)F)cc(-c5nccn5CCOCCN5CCC(CN6CCN(c7ccc8c(c7)CN([C@@H]7CCC(=O)NC7=O)C8=O)CC6)CC5)cn4c3=O)c2)COC1 [Compound 99],> 10000 nM,< 30%,
Cn1cnnc1[C@@H](c1cccc(-n2cc3c(C(F)(F)F)cc(CN4CCC(COCc5ccc(CN6CCN(c7ccc8c(c7)CN([C@@H]7CCC(=O)NC7=O)C8=O)CC6)cc5)CC4)cn3c2=O)c1)C1CCC1 [Compound 101],30 to 300 nM,,50 to 70%
Cn1cnnc1[C@@H](c1cccc(-n2cc3c(C(F)(F)F)cc(CN4CCC(COCc5ccc(CN6CCN(c7ccc8c(c7)CN([C@H]7CCC(=O)NC7=O)C8=O)CC6)cc5)CC4)cn3c2=O)c1)C1CCC1 [Compound 102],30 to 300 nM,> 70%,
CN(CCO[C@@H]1CCCN(Cc2cc(C(F)(F)F)c3cn(-c4cccc([C@H](c5nncn5C)C5CCC5)c4)c(=O)n3c2)C1)C(=O)c1ccc(N2CCN(c3ccc4c(c3)CN([C@H]3CCC(=O)NC3=O)C4=O)CC2)cc1 [Compound 104],30 to 300 nM,,
CN(CCO[C@H]1CCCN(Cc2cc(C(F)(F)F)c3cn(-c4cccc([C@H](c5nncn5C)C5CCC5)c4)c(=O)n3c2)C1)C(=O)c1ccc(N2CCN(c3ccc4c(c3)CN([C@H]3CCC(=O)NC3=O)C4=O)CC2)cc1 [Compound 106],300 to 1000 nM,,
Cn1cnnc1CC1(c2cccc(-n3cc4c(C(F)(F)F)cc(CN5CC(OCCN6CCC(CN7CCN(c8ccc9c(c8)CN(C8CCC(=O)NC8=O)C9=O)CC7)CC6)C5)cn4c3=O)c2)COC1 (stereo not shown) [Compound 113],> 10000 nM,,< 30%
Cn1cnnc1[C@@H](c1cccc(-n2cc3c(C(F)(F)F)cc(CN4CC(OCCN5CCC(CN6CCN(c7ccc8c(c7)CN(C7CCC(=O)NC7=O)C8=O)CC6)CC5)C4)cn3c2=O)c1)C1CCC1 (stereo partly shown) [Compound 114],> 10000 nM,< 30%,
Cn1cnnc1[C@@H](c1cccc(-n2cc3c(C(F)(F)F)cc(CN4CCC(OCCc5ccc(CN6CCN(c7ccc8c(c7)CN([C@H]7CCC(=O)NC7=O)C8=O)CC6)cc5)CC4)cn3c2=O)c1)C1CCC1 [Compound 116],< 30 nM,50 to 70%,
Cn1cnnc1[C@@H](c1cccc(-n2cc3c(C(F)(F)F)cc(CN4CCN(C(=O)CN5CCC(CN6CCN(c7ccc8c(c7)CN([C@@H]7CCC(=O)NC7=O)C8=O)CC6)CC5)CC4)cn3c2=O)c1)C1CCC1 [Compound 129],> 10000 nM,< 30%,
Cn1cnnc1[C@@H](c1cccc(-n2cc3c(C(F)(F)F)cc(CN4CCC(N5CCC(CN6CCN(c7ccc8c(c7)CN([C@H]7CCC(=O)NC7=O)C8=O)CC6)CC5)CC4)cn3c2=O)c1)C1CCC1 [Compound 136],30 to 300 nM,,
CN(C(=O)c1ccc(N2CCN(c3ccc4c(c3)CN([C@@H]3CCC(=O)NC3=O)C4=O)CC2)cc1)C1CCN(Cc2cc(C(F)(F)F)c3cn(-c4cccc([C@H](c5nncn5C)C5CCC5)c4)c(=O)n3c2)CC1 [Compound 137],30 to 300 nM,30 to 50%,
CN(C(=O)c1ccc(N2CCN(c3ccc4c(c3)CN([C@H]3CCC(=O)NC3=O)C4=O)CC2)cc1)C1CCN(Cc2cc(C(F)(F)F)c3cn(-c4cccc([C@H](c5nncn5C)C5CCC5)c4)c(=O)n3c2)CC1 [Compound 138],300 to 1000 nM,< 30%,
Cn1cnnc1[C@@H](c1cccc(-n2cc3c(C(F)(F)F)cc(COCCCN4CCC(CN5CCN(c6ccc7c(c6)CN([C@H]6CCC(=O)NC6=O)C7=O)CC5)CC4)cn3c2=O)c1)C1CCC1 [Compound 150],> 10000 nM,< 30%,
CN(CCOC1CCN(Cc2cc(C(F)(F)F)c3cn(-c4cccc([C@H](c5nncn5C)C5CCC5)c4)c(=O)n3c2)CC1)C(=O)c1ccc(N2CCC(c3ccc4c(c3)CN([C@@H]3CCC(=O)NC3=O)C4=O)CC2)cc1 [Compound 151],30 to 300 nM,50 to 70%,

SMILES,DC50 [1],Dmax [2],Dmax (THP-1)
CN(CCOC1CCN(Cc2cc(C(F)(F)F)c3cn(-c4cccc([C@H](c5nncn5C)C5CCC5)c4)c(=O)n3c2)CC1)C(=O)c1ccc(N2CCC(c3ccc4c(c3)CN([C@H]3CCC(=O)NC3=O)C4=O)CC2)cc1 [Compound 152],< 30 nM,> 70%,
CN(C(=O)c1ccc(CN2CCN(c3ccc4c(c3)CN([C@@H]3CCC(=O)NC3=O)C4=O)CC2)cc1)C1CCN(Cc2cc(C(F)(F)F)c3cn(-c4cccc([C@H](c5nncn5C)C5CCC5)c4)c(=O)n3c2)CC1 [Compound 159],> 10000 nM,,< 30%
CN(C(=O)c1ccc(CN2CCN(c3ccc4c(c3)CN([C@H]3CCC(=O)NC3=O)C4=O)CC2)cc1)C1CCN(Cc2cc(C(F)(F)F)c3cn(-c4cccc([C@H](c5nncn5C)C5CCC5)c4)c(=O)n3c2)CC1 [Compound 160],< 30 nM,> 70%,
Cn1cnnc1[C@@H](c1cccc(-n2cc3c(C(F)(F)F)cc(CN4CCC(CCN5CCC(CC6CCN(c7ccc8c(c7)CN([C@@H]7CCC(=O)NC7=O)C8=O)CC6)CC5)CC4)cn3c2=O)c1)C1CCC1 [Compound 163],> 10000 nM,< 30%,
Cn1cnnc1[C@@H](c1cccc(-n2cc3c(C(F)(F)F)cc(CN4CCC(CCN5CCC(CC6CCN(c7ccc8c(c7)CN([C@H]7CCC(=O)NC7=O)C8=O)CC6)CC5)CC4)cn3c2=O)c1)C1CCC1 [Compound 164],< 30 nM,> 70%,
CN(CC1CCN(Cc2cc(C(F)(F)F)c3cn(-c4cccc(C5(Cc6nncn6C)COC5)c4)c(=O)n3c2)CC1)C(=O)c1ccc(N2CCN(c3ccc4c(c3)CN([C@@H]3CCC(=O)NC3=O)C4=O)CC2)cc1 [Compound 165],1000 to 10000 nM,30 to 50%,
CN(CC1CCN(Cc2cc(C(F)(F)F)c3cn(-c4cccc(C5(Cc6nncn6C)COC5)c4)c(=O)n3c2)CC1)C(=O)c1ccc(N2CCN(c3ccc4c(c3)CN([C@H]3CCC(=O)NC3=O)C4=O)CC2)cc1 [Compound 166],< 30 nM,> 70%,
CO[C@H]1C[C@@](c2cccc(-n3cc4c(C(F)(F)F)cc(CN5CCC(CN(C)C(=O)c6ccc(N7CCN(c8ccc9c(c8)CN([C@@H]8CCC(=O)NC8=O)C9=O)CC7)cc6)CC5)cn4c3=O)c2)(c2nncn2C)C1 [Compound 167],1000 to 10000 nM,< 30%,
CO[C@H]1C[C@](c2cccc(-n3cc4c(C(F)(F)F)cc(CN5CCC(CN(C)C(=O)c6ccc(N7CCN(c8ccc9c(c8)CN([C@@H]8CCC(=O)NC8=O)C9=O)CC7)cc6)CC5)cn4c3=O)c2)(c2nncn2C)C1 [Compound 168],> 10000 nM,< 30%,
CO[C@H]1C[C@@](c2cccc(-n3cc4c(C(F)(F)F)cc(CN5CCC(CN(C)C(=O)c6ccc(N7CCN(c8ccc9c(c8)CN([C@H]8CCC(=O)NC8=O)C9=O)CC7)cc6)CC5)cn4c3=O)c2)(c2nncn2C)C1 [Compound 169],30 to 300 nM,30 to 50%,
Cn1cnnc1[C@@H](c1cccc(-n2cc3c(C(F)(F)F)cc(CN4CCC(CC(=O)N5CCC(CC6CCN(c7ccc8c(c7)CN([C@@H]7CCC(=O)NC7=O)C8=O)CC6)CC5)CC4)cn3c2=O)c1)C1CCC1 [Compound 175],> 10000 nM,,< 30%
Cn1cnnc1[C@@H](c1cccc(-n2cc3c(C(F)(F)F)cc(CN4CCC(CC(=O)N5CCC(CC6CCN(c7ccc8c(c7)CN([C@H]7CCC(=O)NC7=O)C8=O)CC6)CC5)CC4)cn3c2=O)c1)C1CCC1 [Compound 176],< 30 nM,> 70%,
Cn1cnnc1[C@@H](c1cccc(-n2cc3c(C(F)(F)F)cc(CN4CCC(CC(=O)N5CCC(Cc6ccc(-c7ccc8c(c7)CN([C@@H]7CCC(=O)NC7=O)C8=O)cc6)CC5)CC4)cn3c2=O)c1)C1CCC1 [Compound 179],300 to 1000 nM,,30 to 50%
Cn1cnnc1[C@@H](c1cccc(-n2cc3c(C(F)(F)F)cc(CN4CCC(CC(=O)N5CCC(Cc6ccc(-c7ccc8c(c7)CN([C@H]7CCC(=O)NC7=O)C8=O)cc6)CC5)CC4)cn3c2=O)c1)C1CCC1 [Compound 180],< 30 nM,,> 70%
Cn1cnnc1[C@@H](c1cccc(-n2cc3c(C(F)(F)F)cc(CN4CCC(CC(=O)N5CCC(c6ccc(-c7ccc8c(c7)CN([C@@H]7CCC(=O)NC7=O)C8=O)cc6)CC5)CC4)cn3c2=O)c1)C1CCC1 [Compound 181],300 to 1000 nM,,30 to 50%
Cn1cnnc1[C@@H](c1cccc(-n2cc3c(C(F)(F)F)cc(CN4CCC(CC(=O)N5CCC(c6ccc(-c7ccc8c(c7)CN([C@H]7CCC(=O)NC7=O)C8=O)cc6)CC5)CC4)cn3c2=O)c1)C1CCC1 [Compound 182],< 30 nM,30 to 50%,
CN(CC1CCN(Cc2cc3c(c(C(F)(F)F)c2)CN(c2cccc([C@H](c4nncn4C)C4CCC4)c2)C3=O)CC1)C(=O)c1ccc(N2CCN(c3ccc4c(c3)CN([C@@H]3CCC(=O)NC3=O)C4=O)CC2)cc1 [Compound 183],30 to 300 nM,50 to 70%,
CN(CC1CCN(Cc2cc3c(c(C(F)(F)F)c2)CN(c2cccc([C@H](c4nncn4C)C4CCC4)c2)C3=O)CC1)C(=O)c1ccc(N2CCN(c3ccc4c(c3)CN([C@H]3CCC(=O)NC3=O)C4=O)CC2)cc1 [Compound 184],< 30 nM,> 70%,
